The results in this text go back to patent publication US20100298758A1, “METHOD FOR NON-THERAPEUTIC OR THERAPEUTIC PHOTODYNAMIC SKIN TREATMENT” (priority 2007, published 2010).

For the assay, the system named is cancer cells with high metabolism. Put plainly: Fluorescence after administration of 5-ALA in actinic keratosis (FIG. 5). As to conditions: other investigations. It is filed as in vivo.

As to `NCC(=O)CCC(=O)O` [5-ALA, 5-aminolevulinic acid], the “fluorescence in cancer cells compared to normal cells” value is “high selective fluorescence in cancer cells”.
